Key:
NAMPT = NAMPT enzyme levels in liver cells; assay type: cell-based; conditions: AML-12 liver cells
Excerpt: (§1) To that end, the inventors used endothelial cells (EOMA cells) and liver cells (AML-12 cells) in vitro and quantified various markers in response to exposure of the cells to environmental challenge in the presence and absence of DDA at low concentrations. Unless indicated otherwise, the DDA concentration in the in vitro experiments was 5 mcg per microliter. More specifically, the inventors measured p-H2AX protein levels as a marker for DNA damage, PGC-1α protein levels as a marker for mitochondrial biogenesis, NAMPT enzyme levels as a marker for potential for NAD+ production, and total antioxidant capacity as a marker of cellular health. In addition, the inventors also measured global SIRT activity as a gauge of activity for all SIRT enzymes, and in particular SIRT1 enzyme levels as markers for autophagy and various beneficial processes associated with a caloric restricted diet, and SIRT3 levels as markers for mitochondrial function and longevity.
To evaluate the effect of DDDA on energy metabolism, and particularly on NAD+ synthesis, the inventors also tested the effect of DDDA on NAMPT in liver cells.

liver of rats = assay: qReal time-PCR gene expression in the liver of rats from in vivo study 1 and 2; parameters: species or system Wistar rats
Procedure: Panels A and B. • Study 1: Twenty adult Wistar rats, aged 8-10 weeks, were included in the study. The rats were housed in individual cages at 22° C. with 12-h light cycles and had ad libitum access to food and water. Rats were fed a high fat high cholesterol diet (44% Carbohydrate, 14% Protein, 42% fat+0.2% Cholesterol) for 4 weeks in the presence or absence of 1% Dodecanedioic acid, sodium salt dissolved in the water (FIG. 25, Panel A). Body weight and food/water intake were monitored weekly. • Study 2: Twenty adult Wistar rats, aged 8-10 weeks, were included in the study. The rats were housed in individual cages at 22° C. with 12-h light cycles and had ad libitum access to food and water. Rats were fed a high fat-high cholesterol diet (44% Carbohydrate, 14% Protein, 42% fat+0.2% Cholesterol). After 9 weeks of diet, rats were randomly assigned to one of the following groups: 4 weeks of high fat-high cholesterol diet or 4 weeks of high fat-high cholesterol diet and 1% Dodecanedioic acid, sodium salt dissolved in the water (FIG. 25, Panel B). Body weight and food/water intake were monitored weekly.
Total RNA from human primary hepatocytes was extracted using the RNeasy Plus Mini Kit according to the indications provided by the company. A small aliquot of total RNA obtained (3 μl) was subjected to qualitative and quantitative control by using the microdrop. The qualitative and quantitative assessment of the individual samples was determined using a dedicated software. The total RNA was reverse transcribed into cDNA by using iScript RT. SYBR Green gene expression assays were performed according to the manufacturer's instruction using the iQTMSYBR Green Supermix and the CFX96 Touch Real-Time PCR Detection System. For this purpose, the following pairs of primer were used: solute carrier family 13 member 5 (SLC13A5) (forward 5′ […] 3′ (SEQ ID NO:1) and reverse 5′ […] 3′ (SEQ ID NO:2)), Diacylglycerol O-Acyltransferase 1 (DGAT1) (forward 5′ […] 3′ (SEQ ID NO:3) and reverse 5′ […] 3′ (SEQ ID NO:4)), Fatty Acid Synthase (FASN) (forward 5′ […] 3′ (SEQ ID NO:5) and reverse 5′ […] 3′ (SEQ ID NO:6)), carnitine palmitoyltransferase 1A (CPT1A) (forward 5′ […] 3′ (SEQ ID NO:7) and reverse 5′ […] 3′ (SEQ ID NO:8)) and Acetyl-CoA carboxylase (ACC1) (forward 5′ […] 3′ (SEQ ID NO:9) and reverse 5′ […] 3′ (SEQ ID NO:10)). mRNA expression levels were normalized to B2-microglobulin (forward 5′[…] 3′ (SEQ ID NO:11); and reverse 5′[…] 3′ (SEQ ID NO:12)) and quantification of relative gene expression, presented as percentage of the relevant baseline, was calculated using the 2-ACT (comparative threshold) method.
C12 decrease de novo lipogenesis and an increase in fatty acid oxidation in vitro and in vivo: To test the hypothesis that C12 could affect de novo lipogenesis and fatty acid beta-oxidation, human primary hepatocytes were stimulated with palmitic acids (0.4 mM) in the presence or absence of C12 1% (v/w). […] Similar results were also observed in our in vivo experiments. […] Data from in vivo study 1 and 2 were pooled together.

PGC-1α = PGC-1α in endothelial cells; assay type: cell-based; conditions: EOMA endothelial cells
Excerpt: as §1
In yet a further series of experiments, the inventors also sought to confirm whether or not DDDA would have a modulatory effect in endothelial cells using the same markers and experimental conditions as noted above.
On the other hand, where endothelial cells were exposed to DDDA, there was a significant difference in NAMPT enzyme levels as is exemplarily depicted in FIG. 15.

[1] = in vivo study 1 and 2 pooled, vs control group
[2] = rats from in vivo study 1 and 2, vs control group

O=C(O)CCCCCCCCCCC(=O)O [DDDA, dodecanedioic acid]
NAMPT enzyme levels (NAMPT; 6 hours, p=0.001): significantly increased
NAMPT enzyme levels (NAMPT; 24 hours, pattern relative to 6 hours): paradoxically reversed
ACC1 (de novo lipogenesis enzyme) in liver (liver of rats; [1]): decrease
CPT1A (fatty acid beta-oxidation enzyme) in liver (liver of rats; [1]): significant increase
DGAT (de novo lipogenesis enzyme) in liver (liver of rats; [1]): decrease
FASN (de novo lipogenesis enzyme) in liver (liver of rats; [1]): decrease
gene expression of citrate transporter SLC13A5 in liver (liver of rats; [1]): decrease
COLA1A gene expression in liver (liver of rats; [2]): decreased expression
TGFβ gene expression in liver (liver of rats; [2]): decreased expression
αSMA gene expression in liver (liver of rats; [2]): decreased expression
PGC-1α (PGC-1α): did not show a statistically significant difference

From patent US20260053767A1, “Hepatoprotective Compositions And Methods” (Jemyll, Ltd., priority 2022, published 2026)
